These results are taken from PubChem BioAssay (NCI).

The structures appear in SMILES notation. Values joined by “and” are separate entries in the source; they are usually repeats but may differ in a detail not shown here. Identical values can stand only once.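 Method: 48-hour compound exposure of cells in 96-well plates, five concentrations, linear interpolation of endpoints. GI50 = concentration required for 50% inhibition of growth. TGI: concentration producing complete growth inhibition.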

Among the test systems are UACC-62 melanoma; HCT-116 colon; OVCAR-3 ovarian; NCI-H23 lung; RPMI-8226 leukemia; OVCAR-4 ovarian; SK-MEL-5 melanoma; SF-539 CNS; 786-0 renal.
What all share (test): NCI-60 cell line screen, 48 h

With `COc1ccc(-c2ccc(-c3ccc(C(=N)N)cn3)o2)cc1`, the GI50 with UACC-62 melanoma was 10.3 µM; with HCT-116 colon it was 3.26 µM; in the assay on OVCAR-3 ovarian it was 8.9 µM; in the assay with NCI-H23 lung, 11.6 µM; with RPMI-8226 leukemia, 2.78 µM; in the assay with OVCAR-4 ovarian it was 10.4 µM. The results for the GI50 in the assay on SK-MEL-5 melanoma, in the assay on SF-539 CNS and with 786-0 renal were 3.43 µM, 4.74 µM and 6.02 µM, respectively. Also, the TGI turned out to be 22.9 µM in the assay with UACC-62 melanoma; 12.9 µM in the assay on HCT-116 colon; 21.6 µM in the assay with OVCAR-3 ovarian; 25.5 µM in the assay on NCI-H23 lung; 10.1 µM with RPMI-8226 leukemia; 22.1 µM with OVCAR-4 ovarian. Also, the results for the TGI in the assay on SK-MEL-5 melanoma, in the assay with SF-539 CNS and in the assay with 786-0 renal were 14.1 µM, 17.8 µM and 18.8 µM, respectively.
Turning to `COc1cc2c(=O)n(CCN)c3c4cc5c(cc4ccc3c2cc1OC)OCO5`, the GI50 in the assay with UACC-62 melanoma is 0.332 µM; in the assay on HCT-116 colon, 0.285 µM; in the assay with OVCAR-3 ovarian, 0.919 µM; in the assay on NCI-H23 lung, 0.683 µM; in the assay with RPMI-8226 leukemia, 0.356 µM; in the assay on OVCAR-4 ovarian it was 0.902 µM. Besides, the GI50 with SK-MEL-5 melanoma is 0.834 µM; in the assay on SF-539 CNS it was 0.893 µM; in the assay with 786-0 renal, 0.464 µM. The TGI with UACC-62 melanoma is 1.96 µM; with HCT-116 colon it was 1.31 µM; in the assay on OVCAR-3 ovarian, 2.26 µM; in the assay with NCI-H23 lung, 2.51 µM; in the assay with RPMI-8226 leukemia, 2.37 µM; with OVCAR-4 ovarian, 2.55 µM. The figures for the TGI with SK-MEL-5 melanoma, in the assay with SF-539 CNS and with 786-0 renal were 2.15 µM, 2.25 µM and 1.97 µM, respectively.
On to `CC1C(=O)OCC2=CCN3CCC(OC(=O)C(C)C1(C)O)C23` (stereo unspecified), for which the TGI in the assay on UACC-62 melanoma, in the assay on HCT-116 colon, in the assay on OVCAR-3 ovarian, in the assay with NCI-H23 lung, with RPMI-8226 leukemia and in the assay on OVCAR-4 ovarian was more than 100 µM each time. In addition, the TGI in the assay on SK-MEL-5 melanoma, with SF-539 CNS and in the assay with 786-0 renal was more than 100 µM in each case.
Take `COc1cc(/C=C2\C(=O)Nc3ccc(N(C)C)cc32)cc(OC)c1OC`: the GI50 with UACC-62 melanoma is 2.5 µM; in the assay on HCT-116 colon, 2.94 µM; in the assay with OVCAR-3 ovarian, 1.41 µM; in the assay on NCI-H23 lung, 3.07 µM; in the assay with RPMI-8226 leukemia, 1.11 µM; in the assay with OVCAR-4 ovarian, 3.7 µM. Besides, the figures for the GI50 in the assay with SK-MEL-5 melanoma, in the assay on SF-539 CNS and in the assay on 786-0 renal were 2.75 µM, 2.44 µM and 4.3 µM, respectively. The TGI is more than 100 µM in the assay on UACC-62 melanoma; more than 43.9 µM in the assay with HCT-116 colon; 4.29 µM in the assay on OVCAR-3 ovarian; more than 100 µM in the assay with NCI-H23 lung; 4.14 µM in the assay with RPMI-8226 leukemia; more than 100 µM in the assay on OVCAR-4 ovarian. Also, the TGI with SK-MEL-5 melanoma turned out to be 24.6 µM; in the assay with SF-539 CNS, 7.88 µM; in the assay with 786-0 renal, 33.3 µM.
Turning to `COc1ccccc1/C=C/C(=O)c1ccccc1`, the GI50 is 5.17 µM in the assay with UACC-62 melanoma; 3.5 µM with HCT-116 colon; 5.92 µM in the assay with OVCAR-3 ovarian; 15.2 µM in the assay with NCI-H23 lung; 0.56 µM with RPMI-8226 leukemia; 9.33 µM with OVCAR-4 ovarian. Besides, the GI50 is 12.7 µM with SK-MEL-5 melanoma, 16.4 µM in the assay with SF-539 CNS and 18.3 µM in the assay with 786-0 renal. Further, the TGI in the assay on UACC-62 melanoma is 18.4 µM; in the assay on HCT-116 colon, 12.8 µM; in the assay on OVCAR-3 ovarian, 15.2 µM; in the assay on NCI-H23 lung it was 36.6 µM; in the assay with RPMI-8226 leukemia, 3.16 µM; in the assay on OVCAR-4 ovarian, 25.9 µM. For the same compound, the figures for the TGI in the assay on SK-MEL-5 melanoma, in the assay with SF-539 CNS and in the assay on 786-0 renal were 25.7 µM, 30.8 µM and 32.8 µM, respectively.
Take `COc1ccc(Cn2c3c(cc(OS(=O)(=O)C(F)(F)F)c2=O)Cc2ccccc2-3)cc1`: the GI50 in the assay on UACC-62 melanoma is 5.39 µM; in the assay on HCT-116 colon, 3.53 µM; in the assay with OVCAR-3 ovarian, 5.12 µM; in the assay with NCI-H23 lung it was 8.26 µM; in the assay on OVCAR-4 ovarian it was 9.56 µM; with SK-MEL-5 melanoma, 7.3 µM. Moreover, the results for the GI50 in the assay on SF-539 CNS and with 786-0 renal were 5.29 µM and 3.87 µM, respectively. Further, the TGI in the assay with UACC-62 melanoma was 50 µM and 32.1 µM; in the assay on HCT-116 colon, 50 µM and > 100 µM; in the assay on OVCAR-3 ovarian it was 50 µM and > 100 µM; in the assay with NCI-H23 lung, 50 µM and > 100 µM; in the assay on RPMI-8226 leukemia, 50 µM; in the assay on OVCAR-4 ovarian, 50 µM and > 100 µM. The TGI was 26 µM and 43.9 µM with SK-MEL-5 melanoma; 50 µM and > 100 µM in the assay on SF-539 CNS; 50 µM and > 100 µM with 786-0 renal.
As for `CCN(CC)C(=S)Oc1cc2oc(=O)cc(C)c2cc1Cl`, the TGI with UACC-62 melanoma was 73.7 µM; in the assay with HCT-116 colon it was more than 100 µM; with OVCAR-3 ovarian, more than 100 µM; with NCI-H23 lung it was more than 100 µM; in the assay on RPMI-8226 leukemia it was more than 100 µM; in the assay on OVCAR-4 ovarian it was more than 100 µM. For the same compound, the TGI in the assay on SK-MEL-5 melanoma, in the assay on SF-539 CNS and with 786-0 renal was more than 100 µM throughout.
In the case of `Nc1ccc(C(=O)CC(N)C(=O)O)cc1O` (stereo unspecified), the TGI with UACC-62 melanoma, in the assay with HCT-116 colon, in the assay on OVCAR-3 ovarian, in the assay with NCI-H23 lung, in the assay on RPMI-8226 leukemia and in the assay on OVCAR-4 ovarian was more than 100 µM in each case. In addition, the TGI with SK-MEL-5 melanoma, in the assay with SF-539 CNS and in the assay with 786-0 renal was more than 100 µM throughout.
